Patent publication US20120128646A1, “METHODS AND COMPOSITIONS FOR THE TREATMENT OF AUTOIMMUNE DISEASE” (priority 2009, published 2012)
Entries after “also recorded” stand apart in the source; their conditions may differ. Each block holds one substance with its values, some of them ahead of it.

Tests used:
T cell clone BDC-2.5 [1] = settings: Yoshida et al 2002; cited from earlier work
T cell clone BDC-10.1 [2] = settings: Yoshida et al 2002; cited from earlier work
T cell clone PD-12.4.4 = experiment: IFNγ production by insulin-reactive control T cell clone (ELISA); assay type: cell-based, NOD mouse; settings: negative control clone
Excerpt: (§1) The T cell clones are maintained in culture by periodic re-stimulation with irradiated NOD splenocytes and islet cells or β-membrane. To assay for antigen, resting responder T cells (i.e., for example, the cells at the end of the two-week restimulation period) are co-cultured for 24 hr with elicited peritoneal macrophages (PEC) as APC and either a test sample or control antigen. Control antigen will be in the form of islet cells or the whole-cell membrane fraction (i.e., for example, a β-membrane fraction). As described above, unlysed β-membrane is stored in aliquots at −80° C. for this purpose. Negative controls include responder cells alone and responders plus APC.
(§2) At the end of the culture period, supernatants are collected from the cultures and IFNγ production is measured by ELISA. Wells positive for IFNγ are indicative of T cells responding to antigen; the amount of cytokine produced is calculated from a standard curve and is directly proportional to the amount of antigen present.
Antigenicity of islet cells, cellular and biochemical fractions, peptides, or insect cells expressing IA^g7-peptide constructs, was assessed through responses of T cell clones or hybridomas made by fusing T cell clones to the TCR^− version of T cell lymphoma, BW5147. […] IFNγ was measured by ELISA of culture supernatants. […]

[3] = target: WE14 peptide (…), natural cleavage product of chromogranin A (mouse); experiment: cell-based or functional assay
T cell clone BDC-10.1 [4] = experiment: IFNγ production by T cell clone in antigen assay (ELISA); assay type: cell-based, NOD mouse; settings: peptide or preparation as antigen
Excerpt: as §1, §2
(§3) Antigenicity of islet cells, cellular and biochemical fractions, peptides, or insect cells expressing IA^g7-peptide constructs, was assessed through responses of T cell clones or hybridomas made by fusing T cell clones to the TCR^− version of T cell lymphoma, BW5147. White et al., “Two better cell lines for making hybridomas expressing specific T cell receptors” J Immunol 143:1822-1825 (1989). T cell clone cultures typically contained 2×10^4 responder T cells, 2.5×10^4 NOD peritoneal exudate cells (PEC) as APC, and antigen (SEC/IEX fractions, peptides, islet cells); all assays were performed with β-Mem as a positive control. IFNγ was measured by ELISA of culture supernatants. For cultures with T cell hybridomas, antigen/MHC activation was assessed by IL-2 production measured by a bioassay using the HT-2 T cell line. Walker et al., “Antigenspecific. I region-restricted interactions in vitro between tumor cell lines and T cell hybridomas” J Immunol 128:2164-2169 (1982). Synthetic peptides were either produced in the Molecular Resource Center at National Jewish Health or obtained from CHI Scientific, Maynard, Mass.

T cell clone BDC-2.5 [5] = experiment: as above; assay type: cell-based, NOD mouse; settings: peptide or preparation as antigen
Excerpt: as §1, §2, §3

T cell clone BDC-5.10.3 = experiment: as above; assay type: cell-based, NOD mouse; settings: peptide or preparation as antigen
Excerpt: as §1, §2, §3

soluble IA^g7 = experiment: Peptide binding to IA^g7: competition with biotinylated HEL peptide; set-up: species or system NOD mouse; settings: competition with biotinylated pHEL 11 μM, pH 5.6, overnight
Excerpt: FIG. 15B: A series of ChgA peptides tested for their ability to compete with a biotinylated HEL peptide for binding to soluble IA^g7. pS3-positive control peptide. IE^k moth cytochrome c-negative control peptide. N=2. Y axis: Percent of IA^g7-bound biotinylated HEL peptide as compared to IE^k. X axis: Log concentration of inhibitor peptide.
In order to confirm the unique binding register of the WE14 peptide, a series of peptides comprising N-terminal extensions and/or C-terminal deletions of WE14 were evaluated for their ability to stimulate the BDC-2.5 T cell clone (FIG. 6a) or to bind to IA^g7. See, FIG. 15A. […] See, FIG. 15B. Further, a pS3 mimotope was used as the positive control peptide and an irrelevant peptide from moth cytochrome c, pMCC, was the negative control peptide. The data were analyzed to determine the stimulatory or binding capacity of the peptides relative to WE14. See, FIG. 15C.
Soluble IA^g7 with covalently attached pHEL was treated with thrombin to cleave the linker attaching the peptide to the IA^g7 β chain. Kozono et al., “Production of soluble MHC class II proteins with covalently bound single peptides” Nature 369:151-154 (1994). Samples (0.5 μg) were incubated with a soluble biotinylated version of pHEL, Biotin-GGGMKRHGLDNYRGYSL (SEQ ID NO: 56) (11 μM), either alone or in the presence of various concentrations of potential competitors peptides, in 15 μL of pH 5.6 buffer overnight at room temperature. The sample was diluted to 100 μL of PBS in a well of a 96-well ELISA plate coated with an anti-IA^g7 monoclonal antibody, OX-6 (BD Pharmaceuticals). The captured IA^g7 was washed several times with PBS and the bound bio-pHEL detected with alkaline phosphatase coupled Extravadin (Sigma) and […].

Substance: HRPIWARMD [peptide mimotope of Yoshida et al 2002]
- Mimotope activation of BDC-2.5 (T cell clone BDC-2.5 [1]): highly stimulatory; also recorded: activate

Substance: HIPIWARMD [peptide mimotope of Yoshida et al 2002]
- Mimotope activation of BDC-10.1 (T cell clone BDC-10.1 [2]): activate

Substance: SHLVEALYLVCGERG [insulin peptide, reference compound]
- Response of insulin-reactive T cell clone PD-12.4.4 (IFNγ), result in words (T cell clone PD-12.4.4): responded

Substance: EDKRWSRMD [ChgA aa354-362; ED9 = WD5 extended with EDKR]
- Stimulation of T cell clone BDC-10.1 (IFNγ response), result in words (T cell clone BDC-10.1 [4]): did not stimulate
- Stimulation of T cell clone BDC-2.5 (IFNγ response), result in words (T cell clone BDC-2.5 [5]): did not stimulate
- Stimulation of T cell clone BDC-2.5 (IFNγ response), result in words (T cell clone BDC-2.5 [5]; listed as ED9): failed to stimulate
- Stimulation of T cell clone BDC-5.10.3 (IFNγ response), result in words (T cell clone BDC-5.10.3): did not stimulate
- IA^g7 binding, result in words (soluble IA^g7): did not bind

Continued, values first:

- potency in activating the BDC clones, relative to the pS3 mimotope (fold less potent than pS3) [3]: 1000
Substance: TCR of the T cell clone BDC-10.1 (on the T cell clone or on a hybridoma bearing this TCR)

- percentage of maximal IFN-γ response at 100 mg/ml β-membrane (% of maximal IFN-γ response) [3]: 15
- potency in activating the BDC clones, relative to the pS3 mimotope (fold less potent than pS3) [3]: 1000
Substance: TCR of the T cell clone BDC-2.5 (on the T cell clone or on a hybridoma bearing this TCR)
